Results: PMC8201173, “Inhibition of Carbonic Anhydrase IX Promotes Apoptosis through Intracellular pH Level Alterations in Cervical Cancer Cells” (International Journal of Molecular Sciences, 2021)

Assays:
Type in all cases: cell-based
HEK-293 = test: WST-1 cytotoxicity assay, HEK-293; settings: Homo sapiens
Experimental: (§1) We used cancer and normal cell lines purchased from ATCC (American Type Culture Collection) and ECACC (European Collection of Authenticated Cell Cultures) and stored in liquid nitrogen. HT-29 (ATCC: HTB-38, colon adenoma cancer), HeLa (ATCC: CCL-2, cervix adenoma cancer cell), MDA-MB-231 (ATCC: HTB-26, breast adenoma cancer cell), and HEK-293 (ATCC: CRL-1573, embryonic kidney epithelial cell) cell lines were incubated in DMEM-F12 (Sigma-Aldrich, Germany), including 10% Fetal Bovine Serum (FBS), 100 μg/mL streptomycin/100 IU/mL penicillin, at 37 °C in an incubator containing 5% CO2, 95% air in a humid atmosphere. PNT-1A (ECACC: 95012614, normal prostate cells) cell line was incubated in RPMI-1640 medium, including %10 FBS, 100 μg/mL streptomycin/100 IU/mL penicillin, at 37 °C in an incubator containing 5% CO2, 95% air in a humid atmosphere.
(§2) The cytotoxic effects of compound E were evaluated with WST kit (Roche, Basel, Switzerland) in accordance with manufacturer protocols. The cells were planted in 96 well plates (10^4 cells per well). After 24 h of incubation, compound E at doses of 0, 2.5, 5, 10, 25, 50, 100, and 200 μM was administrated on the cell lines for 24, 48, and 72 h, and 5-FU on the control cell line with the same doses. WST-1 reactive of 10 µL was added in all wells. Following 4 h incubation, the measurements were carried out in a plate reader (Spectramax M5, BioTek, VT, USA) at wavelengths of 450 and 630 nm. Consequently, graphs were created, and the IC50 values of compound E and 5-fluorouracil were calculated. Selectivity index (SI) can be defined as the ratio of the toxic concentration of a sample against its effective compound concentration.

PNT1-A = test: WST-1 cytotoxicity assay, PNT1-A; settings: Homo sapiens, PNT1A
Experimental: as §1, §2

MDA-MB-231 = test: WST-1 cytotoxicity assay, MDA-MB-231; settings: Homo sapiens
Experimental: (§3) We used cancer and normal cell lines purchased from ATCC (American Type Culture Collection) and ECACC (European Collection of Authenticated Cell Cultures) and stored in liquid nitrogen.
(§4) The cells were planted in 96 well plates (10^4 cells per well). […] WST-1 reactive of 10 µL was added in all wells. Following 4 h incubation, the measurements were carried out in a plate reader (Spectramax M5, BioTek, VT, USA) at wavelengths of 450 and 630 nm.

HT-29 = test: WST-1 cytotoxicity assay, HT-29; settings: Homo sapiens
Experimental: as §3, §4

HeLa cells = test: WST-1 cytotoxicity assay, HeLa; settings: Homo sapiens
Experimental: as §3, §4

Structure (SMILES): O=c1[nH]cc(F)c(=O)[nH]1 [5-FU, 5-Fluorouracil, reference compound]
- IC50 (HEK-293; HEK293, HEK-293, 24 h): 44.6 ± 7.2 µM
- IC50 (HEK-293; HEK293, HEK-293, 48 h): 19.8 ± 2.3 µM
- IC50 (HEK-293; HEK293, HEK-293, 72 h): 14.5 ± 3.2 µM
- IC50 (PNT1-A; 24 h): 23.1 ± 4.55 µM
- IC50 (PNT1-A; 48 h): 21.2 ± 2.2 µM
- IC50 (PNT1-A; 72 h): 17.5 ± 7.6 µM
- IC50 (MDA-MB-231; MDA-MB-231, 24 h): 42.6 ± 2.56 µM
- IC50 (MDA-MB-231; MDA-MB-231, 48 h): 37.9 ± 12.3 µM
- IC50 (MDA-MB-231; MDA-MB-231, 72 h): 21 ± 4.3 µM
- IC50 (HT-29; HT-29, 24 h): 47.3 ± 1.2 µM
- IC50 (HT-29; HT-29, 48 h): 23.4 ± 2.1 µM
- IC50 (HT-29; HT-29, 72 h): 19.3 ± 1.2 µM
- IC50 (HeLa cells; 24 h): 37.8 ± 4.3 µM
- IC50 (HeLa cells; 48 h): 31.2 ± 2.3 µM
- IC50 (HeLa cells; 72 h): 14.7 ± 0.6 µM
